Assay results reported in PubChem BioAssay (NCI).
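Cultured in 96-well plates, cells were exposed to test compound for 48 hours across five concentrations. GI50 = concentration required for 50% inhibition of growth. TGI: total growth inhibition.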

Legend:
Assay in all cases: NCI anticancer screen, dose series, 48 h
OVCAR-8 ovarian = test system: OVCAR-8 ovarian
HOP-92 NSCLC = test system: HOP-92 NSCLC
NCI-H522 lung = test system: NCI-H522 lung
UO-31 renal = test system: UO-31 renal
OVCAR-5 ovarian = test system: OVCAR-5 ovarian
MCF7 breast = test system: MCF7 breast
CAKI-1 renal = test system: CAKI-1 renal
A549 NSCLC = test system: A549 NSCLC
KM12 colon = test system: KM12 colon
TK-10 renal = test system: TK-10 renal

SMILES	GI50 (OVCAR-8 ovarian)	TGI (OVCAR-8 ovarian)	GI50 (HOP-92 NSCLC)	TGI (HOP-92 NSCLC)	GI50 (NCI-H522 lung)	TGI (NCI-H522 lung)	GI50 (UO-31 renal)	GI50 (OVCAR-5 ovarian)	TGI (OVCAR-5 ovarian)	GI50 (MCF7 breast)	TGI (MCF7 breast)	GI50 (CAKI-1 renal)	TGI (CAKI-1 renal)	GI50 (A549 NSCLC)	TGI (A549 NSCLC)	GI50 (KM12 colon)	TGI (KM12 colon)	GI50 (TK-10 renal)	TGI (TK-10 renal)	TGI (UO-31 renal)
COc1cc(/C=C2\C[C@H]3[C@@H]4CC=C5C[C@@H](O)CC[C@]5(C)[C@H]4CC[C@]3(C)[C@H]2O)ccc1OCCN1CCCCC1	1.57 µM	> 12.1 µM	0.688 µM	1.47 µM	1.6 µM	> 50 µM	1.18 µM	1.03 µM	2.6 µM	1.31 µM	20.5 µM	1.74 µM	3.36 µM	0.815 µM	2.23 µM	0.912 µM	2.12 µM	1.61 µM	3.64 µM	–
C/C(=N\N)C(CN1CCOCC1)C(c1ccccc1)c1c(O)c2ccccc2oc1=O (configuration not stated)	–	> 100 µM	–	> 100 µM	–	> 100 µM	–	–	> 100 µM	–	> 100 µM	–	> 100 µM	–	> 100 µM	–	> 100 µM	–	> 100 µM	> 100 µM
CC(C)(C)c1cc[n+](C[n+]2ccc(C(C)(C)C)cc2)cc1	–	> 100 µM	–	> 100 µM	–	> 100 µM	–	–	> 100 µM	–	> 100 µM	–	> 100 µM	–	> 100 µM	–	> 100 µM	–	> 100 µM	> 100 µM
CCCCNC(=O)Oc1ccc(/C(=C(\C)c2ccc(OC)cc2)c2ccc(OCCN3CCCCC3)cc2)cc1	3.4 µM	11.1 µM	1.57 µM	3.71 µM	3.42 µM	11.4 µM	1.71 µM	7.27 µM	23.2 µM	0.0721 µM	3.99 µM	1.94 µM	3.92 µM	4.15 µM	16 µM	2.35 µM	5.91 µM	9.41 µM	23.3 µM	4.01 µM
Oc1ccc(Br)cc1C=NC1CCCCC1	–	> 100 µM	–	> 100 µM	–	> 100 µM	–	–	> 100 µM	–	> 100 µM	–	> 100 µM	–	> 100 µM	–	> 100 µM	–	> 100 µM	> 100 µM
CN1CCN(c2ccncc2S(=O)(=O)N2CCN(C)CC2)CC1	–	> 100 µM	–	> 100 µM	–	> 100 µM	–	–	> 100 µM	–	> 100 µM	–	> 100 µM	–	> 100 µM	–	> 100 µM	–	> 100 µM	> 100 µM
C#Cc1cccc(Nc2nc(C)nc3cc(NC(=O)CCl)ccc23)c1	2.07 µM	6.12 µM	0.67 µM	1.89 µM	0.454 µM	0.92 µM	3.24 µM	0.953 µM	5.38 µM	0.836 µM	4.05 µM	2.97 µM	6.23 µM	4.68 µM	8.66 µM	4.13 µM	8.15 µM	3.52 µM	6.77 µM	6.74 µM
COc1ccc2c(c1)c1ccc3c(c1n2C)C(=O)C=CC3=O	–	26.6 µM	–	14.5 µM	–	7.35 µM	–	–	35 µM	–	15.5 µM	–	18.6 µM	–	68.7 µM	–	35.8 µM	–	17.4 µM	24.5 µM
COc1cc(OCCCN2CCCC2)ccc1Nc1ncc(Cl)c(Nc2ccccc2P(C)(C)=O)n1	3.65 µM	38.8 µM	0.163 µM	1.25 µM	0.811 µM	3.95 µM	2.28 µM	1.07 µM	22.5 µM	0.867 µM	19.3 µM	2.02 µM	5.64 µM	2.14 µM	10.6 µM	2.63 µM	11 µM	0.983 µM	4.91 µM	6.31 µM
CCCCCCCC(=O)Nc1nc2[nH]c(CN3CCN(Cc4cccc(I)c4)CC3)c(CN3CCN(Cc4cccc(I)c4)CC3)c2c(=O)[nH]1	1.04 µM	2.25 µM	0.668 µM	1.4 µM	0.901 µM	1.95 µM	0.717 µM	0.852 µM	1.57 µM	0.793 µM	1.51 µM	0.816 µM	1.49 µM	0.989 µM	1.91 µM	0.906 µM	1.75 µM	0.828 µM	1.62 µM	1.41 µM
N[C@@H](Cc1c[nH]c2ccccc12)C(=O)NC1CCN(Cc2c[nH]c3ccc(Cl)cc23)CC1	15.1 µM	29.6 µM	3.86 µM	17.2 µM	10 µM	22.7 µM	13 µM	5.14 µM	20.8 µM	5.63 µM	20.9 µM	17.8 µM	47.4 µM	13.9 µM	27.5 µM	4.6 µM	16.9 µM	13.4 µM	27.2 µM	26.4 µM
Cn1cnc(SC2=CC(=O)C=C3S[C@H]4C[C@@]23c2c(c(O)c3c5c2=NCCC=5C=N3)N4)c1CC(N)C(=O)O (some centres not stated)	3.81 µM	14.5 µM	17.5 µM	31.7 µM	2.42 µM	5.74 µM	16.4 µM	19.4 µM	33.6 µM	–	11.5 µM	18.7 µM	33.3 µM	–	30.2 µM	12.7 µM	25.4 µM	18 µM	36.9 µM	30.3 µM
C[C@]12CC[C@@H]3c4ccc(O)cc4CC[C@H]3[C@@H]1CC(Cc1ccccc1)(Cc1ccccc1)C2=O	21.5 µM	61.3 µM	2.16 µM	9.77 µM	16.6 µM	36.3 µM	15.8 µM	17.2 µM	31.5 µM	15.6 µM	46.8 µM	25.6 µM	45.3 µM	18.5 µM	48.4 µM	11.5 µM	38 µM	19.9 µM	43 µM	31.3 µM
NC(=O)c1ccc(I)c([N+](=O)[O-])c1	> 100 µM	> 100 µM	> 70.6 µM	> 100 µM	6.06 µM	14.6 µM	> 100 µM	25.5 µM	> 68.1 µM	> 80.5 µM	> 100 µM	32.2 µM	> 57.4 µM	> 94.5 µM	> 100 µM	> 100 µM	> 100 µM	> 100 µM	> 100 µM	> 100 µM
